# Source: patent publication US20250340574A1, “MODULATORS OF CYSTIC FIBROSIS TRANSMEMBRANE CONDUCTANCE REGULATOR” (Vertex Pharmaceuticals Incorporated, priority 2022, published 2025)
# Target: T1, CFTR (F508del/MF-HBE cells) (Homo sapiens, UniProt P13569, DEL508-508)
# T1 construct: human bronchial epithelial (HBE) cells derived from CF subjects heterozygous for F508del and a minimal function CFTR mutation (F508del/MF-HBE); endogenous in cells; host or cells: Primary human bronchial epithelial cells from CF subjects (F508del/MF genotype), differentiated at an air-liquid interface
# T1 sequence (P13569 with tags, fused parts or gaps DEL508-508): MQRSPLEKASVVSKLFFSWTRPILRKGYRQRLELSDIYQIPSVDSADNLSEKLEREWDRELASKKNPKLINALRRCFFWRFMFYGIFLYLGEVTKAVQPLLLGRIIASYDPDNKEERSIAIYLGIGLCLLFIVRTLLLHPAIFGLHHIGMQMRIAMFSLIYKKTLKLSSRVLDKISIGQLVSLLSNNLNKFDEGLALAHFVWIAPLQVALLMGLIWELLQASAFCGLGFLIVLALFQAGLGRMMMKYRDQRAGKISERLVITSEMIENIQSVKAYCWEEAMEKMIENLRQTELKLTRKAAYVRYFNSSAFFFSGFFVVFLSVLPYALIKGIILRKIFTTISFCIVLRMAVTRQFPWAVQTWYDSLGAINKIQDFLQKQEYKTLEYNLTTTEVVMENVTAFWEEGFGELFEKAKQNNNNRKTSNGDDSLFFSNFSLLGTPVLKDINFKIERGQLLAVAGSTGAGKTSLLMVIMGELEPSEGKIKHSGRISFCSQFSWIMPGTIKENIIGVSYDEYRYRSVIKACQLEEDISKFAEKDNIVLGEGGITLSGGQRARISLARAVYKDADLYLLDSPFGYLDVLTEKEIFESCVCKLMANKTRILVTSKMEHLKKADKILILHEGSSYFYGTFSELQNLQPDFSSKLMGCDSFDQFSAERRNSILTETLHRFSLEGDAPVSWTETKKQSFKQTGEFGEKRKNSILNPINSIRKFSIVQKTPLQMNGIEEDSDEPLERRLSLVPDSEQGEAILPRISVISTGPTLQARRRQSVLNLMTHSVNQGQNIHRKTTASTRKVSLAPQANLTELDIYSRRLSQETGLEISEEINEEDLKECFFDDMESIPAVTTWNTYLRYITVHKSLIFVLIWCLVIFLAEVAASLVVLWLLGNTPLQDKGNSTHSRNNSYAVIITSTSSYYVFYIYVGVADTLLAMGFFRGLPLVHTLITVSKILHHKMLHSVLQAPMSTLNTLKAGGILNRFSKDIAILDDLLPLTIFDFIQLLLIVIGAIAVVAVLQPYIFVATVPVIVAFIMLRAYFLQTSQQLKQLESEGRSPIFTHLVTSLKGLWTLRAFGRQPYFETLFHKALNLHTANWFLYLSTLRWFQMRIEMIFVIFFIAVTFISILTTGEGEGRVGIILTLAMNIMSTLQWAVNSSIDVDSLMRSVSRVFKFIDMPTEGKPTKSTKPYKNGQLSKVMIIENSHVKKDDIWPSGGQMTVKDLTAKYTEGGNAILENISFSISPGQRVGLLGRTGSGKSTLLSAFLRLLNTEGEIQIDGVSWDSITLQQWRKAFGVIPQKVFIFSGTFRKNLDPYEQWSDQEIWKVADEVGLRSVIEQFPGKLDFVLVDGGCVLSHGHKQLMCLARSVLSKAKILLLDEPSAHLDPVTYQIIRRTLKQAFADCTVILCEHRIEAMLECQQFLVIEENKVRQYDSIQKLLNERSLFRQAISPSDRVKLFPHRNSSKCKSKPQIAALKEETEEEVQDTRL
# Test: Ussing chamber assay of CFTR-mediated short-circuit currents, Assay D (single concentration of 1 μM)
# Type: cell-based
# Conditions: with 44 nM potentiator and 18 μM Tezacaftor, 18-24 hours, 20% human serum
# Method in brief: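 F508del/MF-HBE cells were preincubated 18–24 h at 37 °C in 20% human serum with corrector plus 18 μM tezacaftor and either 33 nM (concentration series) or 44 nM (1 μM single point) of the aminotrifluoromethyl triazatricyclic potentiator. Ussing chamber, Vhold=0 mV, 37 °C; forskolin 20 μM stimulation, CFTR ISC taken as inhibitor-cocktail-sensitive current.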
row,Compound,D activity at 1 μM (%)
1,Cc1cccc(C)c1-c1cc2nc(n1)NS(=O)(=O)c1cccc(c1)C(=O)N(Cc1cnc3oc(C4(C)CC4)cc3n1)[C@H](COC(C)C)CO2 [Compound I-186],+++ (+++ is >60%)
2,Cc1cccc(C)c1-c1cc2nc(n1)NS(=O)(=O)c1cccc(c1)C(=O)N(Cc1cnc3cc(C(C)C)n(C)c3n1)[C@H](Cc1ccccc1)CO2 [Compound I-190],+++ (+++ is >60%)
3,Cc1cccc(C)c1-c1cc2nc(n1)NS(=O)(=O)c1cccc(c1)C(=O)N(Cc1cnc3c(n1)C(=O)N(C(C)C)C3)[C@@H](CCC1(C)CC1)CO2 (stereo in doubt) [III-22],+++ (+++ is >60%)
4,Cc1cccc(C)c1-c1cc2nc(n1)NS(=O)(=O)c1cccc(c1)C(=O)N(Cc1cn3cccc(O)c3n1)[C@H](CC(C)(C)C)CO2 [III-15],+++ (+++ is >60%)
5,Cc1cccc(C)c1-c1cc2nc(n1)NS(=O)(=O)c1cccc(c1)C(=O)N(Cc1cnc3oc(C4CC4)cc3n1)[C@H](CC1(C)CCC1)CO2 [Compound I-116],+++ (+++ is >60%)
6,Cc1cccc(C)c1-c1cc2nc(n1)NS(=O)(=O)c1cccc(c1)C(=O)N(Cc1cnc3oc(C4CC4)cc3n1)[C@H](CC(C)C)CO2 [Compound I-156],+++ (+++ is >60%)
7,Cc1cccc(C)c1-c1cc2nc(n1)NS(=O)(=O)c1cccc(c1)C(=O)N(Cc1cnc3oc(C(C)C)cc3n1)[C@H](CC1(F)CCC1)CO2 [Compound I-124],+++ (+++ is >60%)
8,"Cc1cccc(C)c1-c1cc2nc(n1)NS(=O)(=O)c1cccc(c1)C(=O)N(Cc1cnc3oc(C4CC4)cc3n1)[C@@H](CC1CC(C)(C)C1)CO2 (single isomer, unassigned) [Compound I-166, 12-[(6-cyclopropylfuro[2,3-b]pyrazin-2-yl)methyl]-11-[(3,3-dimethylcyclobutyl)methyl]-6-(2,6-dimethylphenyl)-2,2-dioxo-9-oxa-2λ^6-thia-3,5,12,19-tetrazatricyclo[12.3.1.14,8]nonadeca-1(18),4(19),5,7,14,16-hexaen-13-one]",++ (++ is 30-60%)
9,Cc1cccc(C)c1-c1cc2nc(n1)NS(=O)(=O)c1cccc(c1)C(=O)N(Cc1cnc3cn(C(C)C)nc3n1)[C@@H](CCC1(C)CC1)CO2 [Compound I-129],+++ (+++ is >60%)
10,Cc1cccc(C)c1-c1cc2nc(n1)NS(=O)(=O)c1cccc(c1)C(=O)N(Cc1cnc3cc(C(C)C)n(C)c3n1)[C@H](CC1(F)CCC1)CO2 [Compound I-125],+++ (+++ is >60%)
11,Cc1cccc(C)c1-c1cc2nc(n1)NS(=O)(=O)c1cccc(c1)C(=O)N(Cc1nc3cc(C(C)(C)C)oc3cc1F)[C@H](CC13CC(C1)C3)CO2 [Compound I-244],+++ (+++ is >60%)
12,Cc1cccc(C)c1-c1cc2nc(n1)NS(=O)(=O)c1cccc(c1)C(=O)N(Cc1nc3cc(C(C)C)oc3nc1C(F)(F)F)[C@H](CC1(C)CC1)CO2 [Compound I-142],+++ (+++ is >60%)
13,Cc1cccc(C)c1-c1cc2nc(n1)NS(=O)(=O)c1cccc(c1)C(=O)N(Cc1cnc3oc(C)c(C4CC4)c3n1)[C@H](CC(C)(C)C)CO2 [Compound I-28],+++ (+++ is >60%)
14,Cc1cccc(C)c1-c1cc2nc(n1)NS(=O)(=O)c1cccc(c1)C(=O)N(Cc1nc3c(cc1F)nc(C(C)C)n3C)[C@H](CC1(C)CC1)CO2 [Compound I-79],+++ (+++ is >60%)
15,Cc1cccc(C)c1-c1nc2nc(c1C)OC[C@@H](CC13CC(C1)C3)N(Cc1cnc3oc(C(C)(C)C)cc3n1)C(=O)c1cccc(c1)S(=O)(=O)N2 [Compound I-223],+++ (+++ is >60%)
16,"Cc1cccc(OC(C)C)c1-c1nc2nc(c1C)OC[C@@H](CC(C)(C)C)N(Cc1cnc3cc(C(C)(C)C)n(C)c3n1)C(=O)c1cccc(c1)S(=O)(=O)N2 (atropisomer, axis not shown) [Compound I-261]",+++ (+++ is >60%)

row,Compound,D activity at 1 μM (%)
1,Cc1cccc(C)c1-c1cc2nc(n1)NS(=O)(=O)c1cccc(c1)C(=O)N(Cc1cnc3oc(C4CC4)cc3n1)[C@@H](C1CC(C)(C)C1)CO2 [Compound I-163],+++ (+++ is >60%)
2,"Cc1cccc(CC(C)C)c1-c1nc2nc(c1C)OC[C@@H](CC(C)(C)C)N(Cc1cnc3oc(C(C)(C)C)cc3n1)C(=O)c1cccc(c1)S(=O)(=O)N2 (atropisomer, axis not shown) [Compound I-238]",+++ (+++ is >60%)
3,Cc1cccc(C)c1-c1cc2nc(n1)NS(=O)(=O)c1cccc(c1)C(=O)N(Cc1ccc3oc(C4(C)CC4)cc3n1)[C@H](COC(C)C)CO2 [Compound I-241],+++ (+++ is >60%)
4,Cc1cccc(C)c1-c1nc2nc(c1C)OC[C@@H](C[C@H]1CCCCO1)N(Cc1cnc3oc(C4CC4)cc3n1)C(=O)c1cccc(c1)S(=O)(=O)N2 [Compound I-192],+++ (+++ is >60%)
5,Cc1cccc(C)c1-c1cc2nc(n1)NS(=O)(=O)c1cccc(c1)C(=O)N(Cc1cnc3oc(C(C)C)cc3n1)[C@H](CC1(C)CCC1)CO2 [Compound I-55],+++ (+++ is >60%)
6,Cc1cccc(C)c1-c1cc2nc(n1)NS(=O)(=O)c1cccc(c1)C(=O)N(Cc1cnc3cn(C(C)C)nc3n1)[C@H](COC(C)C)CO2 [Compound I-132],+++ (+++ is >60%)
7,"Cc1cccc(CCC(C)C)c1-c1nc2nc(c1C)OC[C@@H](CC(C)(C)C)N(Cc1cnc3oc(C4CC4)cc3n1)C(=O)c1cccc(c1)S(=O)(=O)N2 (atropisomer, axis not shown) [Compound I-205]",+++ (+++ is >60%)
8,Cc1cccc(C)c1-c1cc2nc(n1)NS(=O)(=O)c1cccc(c1)C(=O)N(Cc1cnc3oc(C(C)C)cc3n1)[C@H](COC1CCCC1)CO2 [Compound I-120],+++ (+++ is >60%)
9,Cc1cccc(C)c1-c1cc2nc(n1)NS(=O)(=O)c1cccc(c1)C(=O)N(Cc1cnc3oc(C(C)C)c(C(F)(F)F)c3n1)[C@H](CC13CC(C1)C3)CO2 [Compound I-114],+++ (+++ is >60%)
10,Cc1cccc(CC(C)C)c1-c1nc2nc(c1C)OC[C@@H](CC13CC(C1)C3)N(Cc1cnc3oc(C(C)(C)C)cc3n1)C(=O)c1cccc(c1)S(=O)(=O)N2 [Compound I-248],+++ (+++ is >60%)
11,Cc1cccc(CC2CCCCC2)c1-c1nc2nc(c1C)OC[C@@H](CC(C)(C)C)N(Cc1cnc3oc(C4CC4)cc3n1)C(=O)c1cccc(c1)S(=O)(=O)N2 [Compound I-224],+++ (+++ is >60%)
12,Cc1cccc(C)c1-c1cc2nc(n1)NS(=O)(=O)c1cccc(c1)C(=O)N(Cc1ncc3oc(C(C)(C)C)cc3n1)[C@H](CC1(C)CC1)CO2 [Compound I-252],+++ (+++ is >60%)
13,Cc1cccc(C)c1-c1cc2nc(n1)NS(=O)(=O)c1cccc(c1)C(=O)N(Cc1cnc3cc(C(C)C)n(C)c3n1)[C@H](CC1CCOCC1)CO2 [Compound I-29],++ (++ is 30-60%)
14,Cc1cccc(C)c1-c1cc2nc(n1)NS(=O)(=O)c1cccc(c1)C(=O)N(Cc1cnc3oc(C(C)C)c(C)c3n1)[C@H](CC(C)(C)F)CO2 [Compound I-48],+++ (+++ is >60%)
15,Cc1cccc(C)c1-c1cc2nc(n1)NS(=O)(=O)c1cccc(c1)C(=O)N(Cc1cnc3oc(C(C)C)c(C#N)c3n1)[C@H](CC(C)(C)C)CO2 [Compound I-74],+++ (+++ is >60%)
16,Cc1cccc(C)c1-c1cc2nc(n1)NS(=O)(=O)c1cccc(c1)C(=O)N(Cc1cnc3oc(C(C)C)c(Cl)c3n1)[C@H](COC(C)C)CO2 [Compound I-162],+++ (+++ is >60%)

# Same assay, conditions: with 44 nM potentiator and 18 μM Tezacaftor, 20% human serum
row,Compound,D act. at 1 μM (%)
1,Cc1cccc(C)c1-c1cc2nc(n1)NS(=O)(=O)c1cccc(c1)C(=O)N(Cc1cnc3oc(C(C)(C)C)cc3n1)[C@H](CC(C)C)CO2 [IV-6],+++ (+++ is >60%)
2,Cc1cccc(C)c1-c1cc2nc(n1)NS(=O)(=O)c1cccc(c1)C(=O)N(Cc1cnc3oc(C(C)(C)C)cc3n1)[C@H](CC1CCCC1)CO2 [IV-8],+++ (+++ is >60%)
3,Cc1cccc(C)c1-c1cc2nc(n1)NS(=O)(=O)c1cccc(c1)C(=O)N(Cc1cnc3oc(C(C)(C)C)cc3n1)[C@H](CC1CCCCC1)CO2 [IV-9],+++ (+++ is >60%)
4,"CC(C)=Cc1cc2nc(CN3C(=O)c4cccc(c4)S(=O)(=O)Nc4nc(cc(-c5c(C)cccc5C)n4)OC[C@H]3CC3(C)CC3)cnc2o1 [IV-17, (11R)-6-(2,6-dimethylphenyl)-11-[(1-methylcyclopropyl)methyl]-12-[[6-(2-methylprop-1-enyl)furo[2,3-b]pyrazin-2-yl]methyl]-2,2-dioxo-9-oxa-2λ^6-thia-3,5,12,19-tetrazatricyclo[12.3.1.14,8]nonadeca-1(18),4(19),5,7,14,16-hexaen-13-one]",+++ (+++ is >60%)
5,"Cc1cccc(C)c1-c1cc2nc(n1)NS(=O)(=O)c1cccc(c1)C(=O)N(Cc1cnc3oc([C@](C)(O)CO)cc3n1)[C@H](CC1(C)CC1)CO2 (single isomer, unassigned) [IV-15]",+++ (+++ is >60%)
6,"Cc1cccc(C)c1-c1cc2nc(n1)NS(=O)(=O)c1cccc(c1)C(=O)N(Cc1cnc3cc(C4(C)CC4)n(C)c3n1)[C@@H](C(C1CCC1)C1CCC1)CO2 (single isomer, unassigned) [IV-21, 11-[di(cyclobutyl)methyl]-6-(2,6-dimethylphenyl)-12-[[5-methyl-6-(1-methylcyclopropyl)pyrrolo[2,3-b]pyrazin-3-yl]methyl]-2,2-dioxo-9-oxa-2λ^6-thia-3,5,12,19-tetrazatricyclo[12.3.1.14,8]nonadeca-1(18),4(19),5,7,14,16-hexaen-13-one]",++ (++ is 30-60%)
